In ChEMBL document CHEMBL5465560, “Selectivity Literature for EUbOPEN Chemogenomic Library” (2024):

Experiments:
[1] = target: Mitogen-activated protein kinase kinase kinase 9 (Homo sapiens) (UniProt P80192); assay: Selectivity interaction (Kinase panel (literature)) EUB0001199aCl MAP3K9; settings: at 1 µM
[2] = target: DNA-dependent protein kinase catalytic subunit (Homo sapiens) (UniProt P78527); assay: Selectivity interaction (ActivX KiNativ screen (kinase selectivity in THP-1 cell lysates)) EUB0000639a PRKDC; type: subcellular; settings: lysate, at 0.01 µM
[3] = target: Serine/threonine-protein kinase 16 (Homo sapiens, UniProt O75716); assay: Selectivity interaction (Kinase panel (Invitrogen)) EUB0000639a STK16; settings: at 200 nM
[4] = target: Serine/threonine-protein kinase tousled-like 2 (Homo sapiens) (UniProt Q86UE8); assay: Selectivity interaction (ActivX KiNativ screen (kinase selectivity in THP-1 cell lysates)) EUB0000639a TLK2; type: subcellular; settings: lysate, at 0.2 µM
[5] = target: Histone-lysine N-methyltransferase, H3 lysine-79 specific (Homo sapiens, UniProt Q8TEK3); assay: Selectivity interaction (Methyltransferase screen (Scintillation proximity assays)) EUB0000255b DOT1L
[6] = target: Amine oxidase [flavin-containing] A (Homo sapiens, UniProt P21397); assay: Selectivity interaction (Panel of non-epigenetic targets (kinases, GPCRs, ion channels, and transporters, Eurofins) ) EUB0000271b MAOA; settings: at 1 µM
[7] = target: T1, Rhodopsin kinase GRK1 (Homo sapiens) (UniProt Q15835); assay: Selectivity interaction (KinomeScan (DiscoverX)) EUB0000695a GRK1; settings: at 100 nM
T1 sequence (whole entry): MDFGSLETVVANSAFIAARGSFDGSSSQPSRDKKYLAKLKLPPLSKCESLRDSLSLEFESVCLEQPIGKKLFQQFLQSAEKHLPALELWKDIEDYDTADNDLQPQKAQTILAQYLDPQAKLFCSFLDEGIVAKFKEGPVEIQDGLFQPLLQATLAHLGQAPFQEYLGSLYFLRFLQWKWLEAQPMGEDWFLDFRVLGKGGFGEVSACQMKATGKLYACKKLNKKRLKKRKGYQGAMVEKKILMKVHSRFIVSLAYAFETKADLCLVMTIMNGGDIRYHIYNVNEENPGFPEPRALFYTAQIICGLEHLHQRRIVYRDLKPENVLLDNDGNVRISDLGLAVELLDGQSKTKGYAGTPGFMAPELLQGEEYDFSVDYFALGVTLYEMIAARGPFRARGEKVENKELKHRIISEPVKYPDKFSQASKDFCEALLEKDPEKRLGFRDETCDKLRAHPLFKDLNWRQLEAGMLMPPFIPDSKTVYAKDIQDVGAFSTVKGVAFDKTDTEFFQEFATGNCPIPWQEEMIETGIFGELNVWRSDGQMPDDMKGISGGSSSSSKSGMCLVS

[8] = target: Myosin light chain kinase 2, skeletal/cardiac muscle (Homo sapiens) (UniProt Q9H1R3); assay: Selectivity interaction (KinomeScan (DiscoverX)) EUB0000595a MYLK2; settings: at 10 µM
[9] = target: Non-receptor tyrosine-protein kinase TYK2 (Homo sapiens, UniProt P29597); assay: Selectivity interaction (KinomeScan (DiscoverX)) EUB0000595a TYK2; settings: at 10 µM
[10] = target: Casein kinase I isoform gamma-2 (Homo sapiens) (UniProt P78368); assay: Selectivity interaction (Ambit KINOMEscan and KiNATiv profiling in Jurkat cells) EUB0000090b CSNK1G2; type: cell-based; settings: at 1 µM
[11] = target: Proto-oncogene tyrosine-protein kinase Src (Homo sapiens, UniProt P12931); assay: Selectivity interaction (KinomeScan (DiscoverX)) EUB0000092b SRC; settings: at 10 µM
[12] = target: Serine/threonine-protein kinase MRCK gamma (Homo sapiens) (UniProt Q6DT37); assay: Selectivity interaction (KinomeScan (DiscoverX)) EUB0000618a CDC42BPG; settings: at 10 µM
[13] = tested on: Receptor-type tyrosine-protein kinase FLT3 (Homo sapiens), P36888 [UNDEFINED MUTATION]; assay: (§1) Selectivity interaction (KinomeScan (DiscoverX)) EUB0001619a FLT3; settings: at 1 µM
[14] = tested on: T2, Receptor-type tyrosine-protein kinase FLT3 (Homo sapiens), P36888 [D835Y]; assay: as §1; settings: at 1 µM
T2 sequence (whole entry): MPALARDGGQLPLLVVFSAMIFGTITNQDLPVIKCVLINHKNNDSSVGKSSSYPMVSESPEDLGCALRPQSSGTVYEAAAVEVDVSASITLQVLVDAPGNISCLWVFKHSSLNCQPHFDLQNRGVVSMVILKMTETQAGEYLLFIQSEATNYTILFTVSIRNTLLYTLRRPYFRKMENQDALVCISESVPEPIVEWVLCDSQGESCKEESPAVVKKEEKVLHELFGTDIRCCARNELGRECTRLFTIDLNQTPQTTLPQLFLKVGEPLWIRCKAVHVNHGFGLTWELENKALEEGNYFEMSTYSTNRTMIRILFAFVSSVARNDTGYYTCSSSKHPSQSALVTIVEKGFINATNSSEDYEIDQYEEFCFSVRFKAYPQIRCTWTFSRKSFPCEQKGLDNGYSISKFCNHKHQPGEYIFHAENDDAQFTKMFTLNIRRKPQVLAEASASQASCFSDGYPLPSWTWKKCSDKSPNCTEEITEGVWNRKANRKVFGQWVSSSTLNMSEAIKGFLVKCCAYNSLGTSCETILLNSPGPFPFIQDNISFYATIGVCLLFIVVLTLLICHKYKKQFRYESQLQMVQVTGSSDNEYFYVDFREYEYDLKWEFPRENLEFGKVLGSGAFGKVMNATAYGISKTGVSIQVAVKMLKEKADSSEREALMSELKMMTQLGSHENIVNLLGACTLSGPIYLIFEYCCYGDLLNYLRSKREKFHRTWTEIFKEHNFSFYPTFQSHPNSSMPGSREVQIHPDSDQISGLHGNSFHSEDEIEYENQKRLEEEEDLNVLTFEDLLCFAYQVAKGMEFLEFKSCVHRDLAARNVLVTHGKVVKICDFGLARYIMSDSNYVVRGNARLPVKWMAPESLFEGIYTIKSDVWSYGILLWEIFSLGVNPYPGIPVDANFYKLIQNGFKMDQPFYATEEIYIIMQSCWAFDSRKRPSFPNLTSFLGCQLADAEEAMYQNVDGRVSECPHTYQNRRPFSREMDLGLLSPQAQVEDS

[15] = target: Receptor-type tyrosine-protein kinase FLT3 (Homo sapiens) (UniProt P36888); assay: as §1; settings: at 1 µM
[16] = target: Tyrosine-protein kinase SYK (Homo sapiens, UniProt P43405); assay: Selectivity interaction (ActivX KiNativ screen (ex vivo kinase selectivity in human PBMCs)) EUB0001619a SYK; type: cell-based; settings: PBMC, at 1 µM

Sequence of Histone-lysine N-methyltransferase, H3 lysine-79 specific (Q8TEK3 whole entry, looked up): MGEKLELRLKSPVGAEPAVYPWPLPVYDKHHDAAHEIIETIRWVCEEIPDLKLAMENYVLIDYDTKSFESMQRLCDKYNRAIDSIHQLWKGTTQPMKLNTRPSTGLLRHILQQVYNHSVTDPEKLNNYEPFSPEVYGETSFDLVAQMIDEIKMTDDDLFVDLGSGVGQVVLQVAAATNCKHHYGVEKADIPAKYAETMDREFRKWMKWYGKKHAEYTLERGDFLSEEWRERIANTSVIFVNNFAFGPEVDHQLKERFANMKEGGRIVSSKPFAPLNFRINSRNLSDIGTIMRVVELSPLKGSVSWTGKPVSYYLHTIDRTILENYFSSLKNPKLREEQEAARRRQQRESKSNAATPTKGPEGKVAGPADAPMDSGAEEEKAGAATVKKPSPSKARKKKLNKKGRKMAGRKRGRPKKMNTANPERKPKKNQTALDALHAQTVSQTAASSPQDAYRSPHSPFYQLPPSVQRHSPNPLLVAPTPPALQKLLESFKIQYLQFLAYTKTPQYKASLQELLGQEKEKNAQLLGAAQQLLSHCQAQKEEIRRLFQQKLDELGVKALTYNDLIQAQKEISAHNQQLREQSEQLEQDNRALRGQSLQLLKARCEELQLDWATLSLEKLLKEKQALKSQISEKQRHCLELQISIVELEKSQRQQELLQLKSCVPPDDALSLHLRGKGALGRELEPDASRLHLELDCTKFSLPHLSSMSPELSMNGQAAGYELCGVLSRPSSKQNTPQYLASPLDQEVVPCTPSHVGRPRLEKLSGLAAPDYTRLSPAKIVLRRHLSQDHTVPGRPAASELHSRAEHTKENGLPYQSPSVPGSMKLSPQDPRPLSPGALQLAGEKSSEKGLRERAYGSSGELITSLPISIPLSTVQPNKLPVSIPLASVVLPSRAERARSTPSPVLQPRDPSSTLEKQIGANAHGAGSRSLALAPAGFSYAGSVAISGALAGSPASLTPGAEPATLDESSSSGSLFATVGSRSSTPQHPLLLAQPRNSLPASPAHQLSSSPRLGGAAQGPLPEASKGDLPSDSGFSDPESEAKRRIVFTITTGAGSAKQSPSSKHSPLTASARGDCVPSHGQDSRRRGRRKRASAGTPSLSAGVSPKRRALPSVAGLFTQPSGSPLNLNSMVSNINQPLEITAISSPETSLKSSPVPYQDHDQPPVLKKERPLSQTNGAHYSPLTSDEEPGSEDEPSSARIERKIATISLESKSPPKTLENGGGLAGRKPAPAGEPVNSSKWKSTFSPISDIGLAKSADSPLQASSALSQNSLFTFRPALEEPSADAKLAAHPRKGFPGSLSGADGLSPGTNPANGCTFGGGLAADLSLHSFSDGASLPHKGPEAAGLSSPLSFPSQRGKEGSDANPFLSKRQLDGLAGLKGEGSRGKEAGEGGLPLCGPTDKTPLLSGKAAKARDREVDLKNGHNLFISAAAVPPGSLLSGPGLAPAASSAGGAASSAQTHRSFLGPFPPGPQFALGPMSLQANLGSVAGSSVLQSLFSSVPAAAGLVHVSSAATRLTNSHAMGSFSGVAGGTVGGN
Sequence of Amine oxidase [flavin-containing] A (P21397 whole entry): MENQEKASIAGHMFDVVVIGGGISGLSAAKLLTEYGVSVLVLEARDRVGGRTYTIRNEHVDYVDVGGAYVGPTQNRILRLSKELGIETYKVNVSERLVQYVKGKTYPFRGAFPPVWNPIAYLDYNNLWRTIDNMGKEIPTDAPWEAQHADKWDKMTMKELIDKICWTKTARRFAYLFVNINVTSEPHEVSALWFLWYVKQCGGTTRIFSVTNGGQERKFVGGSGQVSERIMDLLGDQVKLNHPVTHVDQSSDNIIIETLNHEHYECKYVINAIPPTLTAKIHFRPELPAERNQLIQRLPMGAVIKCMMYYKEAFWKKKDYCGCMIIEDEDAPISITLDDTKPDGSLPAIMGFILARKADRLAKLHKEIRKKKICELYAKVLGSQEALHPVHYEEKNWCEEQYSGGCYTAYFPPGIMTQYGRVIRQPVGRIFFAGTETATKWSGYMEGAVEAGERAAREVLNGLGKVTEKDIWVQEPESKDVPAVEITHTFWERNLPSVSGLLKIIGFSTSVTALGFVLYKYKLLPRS
Sequence of Serine/threonine-protein kinase 16 (O75716 whole entry): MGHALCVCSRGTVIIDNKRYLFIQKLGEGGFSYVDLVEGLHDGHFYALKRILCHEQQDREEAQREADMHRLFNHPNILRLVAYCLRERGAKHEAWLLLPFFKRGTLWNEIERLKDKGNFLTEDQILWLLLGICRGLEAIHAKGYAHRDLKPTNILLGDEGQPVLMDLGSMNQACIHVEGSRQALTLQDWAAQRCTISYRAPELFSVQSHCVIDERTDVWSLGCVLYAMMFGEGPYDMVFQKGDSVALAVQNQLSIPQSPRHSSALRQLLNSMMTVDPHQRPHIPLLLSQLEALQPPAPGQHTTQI
Sequence of Non-receptor tyrosine-protein kinase TYK2 (P29597 whole entry, canonical isoform): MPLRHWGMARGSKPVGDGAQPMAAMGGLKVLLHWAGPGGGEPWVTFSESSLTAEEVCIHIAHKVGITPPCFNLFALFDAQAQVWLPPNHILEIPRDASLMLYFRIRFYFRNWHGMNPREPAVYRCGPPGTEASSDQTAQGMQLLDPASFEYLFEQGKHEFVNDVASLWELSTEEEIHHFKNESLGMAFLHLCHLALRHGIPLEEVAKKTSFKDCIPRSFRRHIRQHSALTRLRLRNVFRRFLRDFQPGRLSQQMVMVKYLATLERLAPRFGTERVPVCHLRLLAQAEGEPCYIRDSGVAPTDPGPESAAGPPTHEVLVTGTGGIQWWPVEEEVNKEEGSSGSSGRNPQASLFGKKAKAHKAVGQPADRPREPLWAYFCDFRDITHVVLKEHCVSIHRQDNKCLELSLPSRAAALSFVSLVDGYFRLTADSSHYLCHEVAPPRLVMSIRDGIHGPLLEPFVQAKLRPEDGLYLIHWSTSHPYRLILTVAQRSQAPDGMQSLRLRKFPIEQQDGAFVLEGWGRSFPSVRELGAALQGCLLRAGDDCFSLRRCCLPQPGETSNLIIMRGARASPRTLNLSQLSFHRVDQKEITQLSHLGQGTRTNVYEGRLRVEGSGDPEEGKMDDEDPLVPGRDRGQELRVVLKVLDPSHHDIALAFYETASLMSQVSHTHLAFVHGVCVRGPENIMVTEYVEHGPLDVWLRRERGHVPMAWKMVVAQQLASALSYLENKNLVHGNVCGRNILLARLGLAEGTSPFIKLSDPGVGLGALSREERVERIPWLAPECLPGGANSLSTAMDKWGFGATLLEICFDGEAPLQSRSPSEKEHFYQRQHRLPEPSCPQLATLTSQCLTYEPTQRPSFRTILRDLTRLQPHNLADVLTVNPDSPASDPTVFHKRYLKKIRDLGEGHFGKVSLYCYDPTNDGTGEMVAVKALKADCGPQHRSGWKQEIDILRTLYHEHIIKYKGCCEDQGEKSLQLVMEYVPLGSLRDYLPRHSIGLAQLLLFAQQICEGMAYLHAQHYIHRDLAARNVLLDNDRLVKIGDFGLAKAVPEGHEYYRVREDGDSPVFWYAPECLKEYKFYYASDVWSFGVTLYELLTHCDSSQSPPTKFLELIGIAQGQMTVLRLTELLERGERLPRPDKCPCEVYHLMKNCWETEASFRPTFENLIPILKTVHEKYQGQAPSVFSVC
Sequence of Myosin light chain kinase 2, skeletal/cardiac muscle (Homo sapiens) (Q9H1R3 whole entry): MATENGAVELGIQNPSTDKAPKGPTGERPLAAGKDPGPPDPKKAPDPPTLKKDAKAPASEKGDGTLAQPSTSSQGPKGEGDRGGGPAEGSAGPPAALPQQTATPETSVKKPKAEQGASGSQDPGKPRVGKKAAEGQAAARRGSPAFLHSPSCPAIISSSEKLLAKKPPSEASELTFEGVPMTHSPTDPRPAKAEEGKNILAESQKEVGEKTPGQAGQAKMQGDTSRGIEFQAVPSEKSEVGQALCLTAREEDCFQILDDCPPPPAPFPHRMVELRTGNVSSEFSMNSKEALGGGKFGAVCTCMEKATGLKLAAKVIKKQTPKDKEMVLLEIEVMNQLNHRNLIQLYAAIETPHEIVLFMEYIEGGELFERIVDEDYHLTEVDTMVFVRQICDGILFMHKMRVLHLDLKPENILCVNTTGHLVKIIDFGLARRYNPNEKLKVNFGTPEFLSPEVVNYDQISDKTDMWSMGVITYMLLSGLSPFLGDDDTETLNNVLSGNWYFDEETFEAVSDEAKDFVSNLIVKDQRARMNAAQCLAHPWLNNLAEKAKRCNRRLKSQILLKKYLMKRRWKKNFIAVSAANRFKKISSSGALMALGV
Sequence of Proto-oncogene tyrosine-protein kinase Src (P12931 2-536 limits assumed): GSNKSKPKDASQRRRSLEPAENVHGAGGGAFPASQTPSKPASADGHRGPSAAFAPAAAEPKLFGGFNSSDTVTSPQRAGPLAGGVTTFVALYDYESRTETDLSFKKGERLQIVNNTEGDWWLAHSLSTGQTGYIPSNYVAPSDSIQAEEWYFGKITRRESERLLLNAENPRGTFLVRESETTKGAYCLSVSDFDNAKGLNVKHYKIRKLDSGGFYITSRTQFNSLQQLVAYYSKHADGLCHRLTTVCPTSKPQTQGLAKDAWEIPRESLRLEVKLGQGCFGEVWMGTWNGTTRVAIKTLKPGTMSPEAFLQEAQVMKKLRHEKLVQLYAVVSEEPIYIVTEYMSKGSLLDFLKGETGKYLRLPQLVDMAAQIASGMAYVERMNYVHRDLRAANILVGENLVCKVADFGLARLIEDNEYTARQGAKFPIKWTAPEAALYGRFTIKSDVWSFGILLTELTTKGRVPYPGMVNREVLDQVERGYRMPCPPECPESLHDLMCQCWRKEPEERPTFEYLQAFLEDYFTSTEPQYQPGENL

Question: `CN1Cc2nccc(-c3cn(C)nc3-c3ccc(F)cc3)c2C1=O` was tested. Which % of inhibition [1] did it give?
Answer: 2%

Question: For `CC[C@@H]1[C@H](F)C(=O)N[C@@H]1COc1nccc2cc(C(N)=O)c(OC)cc12` [ZIMLOVISERTIB], which % of inhibition [2] is on record?
Answer: -2.2%

Question: And the % of inhibition [3]?
Answer: 14.2%

Question: And the % of inhibition [4]?
Answer: 16.8%

Question: For `COCCN1CCC(c2cc(CN(C)C(=O)c3cccc(Oc4ccccc4)c3)ccn2)CC1`, which % activity ([5]; at 1 µM) is on record?
Answer: > 95%

Question: What about the % activity ([5]; at 10 µM) of the same compound?
Answer: > 90%

Question: How did the “% of inhibition” value [6] turn out when `Cc1cc(C)cc([C@@H]2c3cc(C)ccc3NC(=O)CN2C(=O)c2ccc(Br)s2)c1` was run?
Answer: 12%

Question: How did the % of control [7] turn out when `Cc1cc(F)c(C(=O)Nc2cccc(-c3nncn3C(C)C)n2)cc1-n1cnc(C2CC2)c1` was run?
Answer: 100%

Question: What does the source list for `COCC(=O)NC/C=C/c1ccc2ncnc(Nc3ccc(Oc4ccc(C)nc4)c(C)c3)c2c1` [CP-724714]?
Answer: % of control [8]: 100%; % of control [9]: 24%

Question: `CN(C)C/C=C/C(=O)Nc1ccc(C(=O)N2CCCC(Nc3ncc(Cl)c(-c4c[nH]c5ccccc45)n3)C2)cc1` (configuration not stated) was tested. Which % of control [10] did it give?
Answer: 98%

Question: Which % of control [11] does the source give for `CCC(=O)N1CCN(c2ccc(-n3c(=O)ccc4cnc5ccc(-c6cnc7ccccc7c6)cc5c43)cc2C(F)(F)F)CC1` here?
Answer: 95%

Question: `O[C@H]1CC[C@H](Nc2ncc3nc(Nc4c(F)cc(F)cc4F)n([C@H]4CCOC4)c3n2)CC1` was tested. Which % of control [12] did it give?
Answer: 81%

Question: With `N#Cc1cccc(-c2c[nH]c3ncnc(N4CCOCC4)c23)c1` as the compound, how does the % of control [13] read?
Answer: 100%

Question: What about the % of control [14] of the same compound?
Answer: 65%

Question: And the % of control [15]?
Answer: 89%

Question: And the % of inhibition [16]?
Answer: 6%
